According to patent US7101878B1 (Agouron Pharmaceuticals, Inc., priority 1998, dated 2006):
Like-named read-outs stand apart in the source and are kept apart here. One block for each compound: values may come before it.

Columns and labels:
[1] = Metabolism rate, pmol/min/mg at 1 μM, human; type: in vitro ADME; details: 1 μM compound
rat GnRH receptor [2] = target: T1, rat GnRH receptor (Rattus norvegicus, UniProt P30969); assay: Radioligand binding, 125I-GnRH-A, rat pituitary membranes; design: membranes were prepared from rat pituitary; from tissue; host or cells: rat pituitary; details: read-out: rGnRH IC50
T1 sequence (P30969 1-327): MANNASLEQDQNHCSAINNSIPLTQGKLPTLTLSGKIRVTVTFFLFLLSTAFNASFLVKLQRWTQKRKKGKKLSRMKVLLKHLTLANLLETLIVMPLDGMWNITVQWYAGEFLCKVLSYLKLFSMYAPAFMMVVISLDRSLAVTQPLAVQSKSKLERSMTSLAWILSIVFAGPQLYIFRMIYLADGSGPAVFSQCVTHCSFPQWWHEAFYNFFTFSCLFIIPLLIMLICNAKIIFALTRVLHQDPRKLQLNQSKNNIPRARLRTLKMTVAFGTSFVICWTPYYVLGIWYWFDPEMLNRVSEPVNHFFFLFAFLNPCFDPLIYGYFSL
Summary of the method: (§1)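 Bound label captured on 0.1% polyethyleneimine-treated GF/C filters, washed three times with PBS, counted. IC50 derived; identical set-up for every species.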

[3] = Pharmacokinetic studies / bioavailability in rats; type: in vivo, rat; details: for Cmax / Tmax / half-life: rat, plasma; for Cmax / Tmax: po
mouse GnRH receptor = target: T2, mouse GnRH receptor (Mus musculus, UniProt Q01776); assay: Radioligand binding, 125I-GnRH-A, 293 cells expressing mouse GnRH receptors
T2 construct: expressed in transfected cells; host or cells: 293 cells
T2 sequence (Q01776 1-327): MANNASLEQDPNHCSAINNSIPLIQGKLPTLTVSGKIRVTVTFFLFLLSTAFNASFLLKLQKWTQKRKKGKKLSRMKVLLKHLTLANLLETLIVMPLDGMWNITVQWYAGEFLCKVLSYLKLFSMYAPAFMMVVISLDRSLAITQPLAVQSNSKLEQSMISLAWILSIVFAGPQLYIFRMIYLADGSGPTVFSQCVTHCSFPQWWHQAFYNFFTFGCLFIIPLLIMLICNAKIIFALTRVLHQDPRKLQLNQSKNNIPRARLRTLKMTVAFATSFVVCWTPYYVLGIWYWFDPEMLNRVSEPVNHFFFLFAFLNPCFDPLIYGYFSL
Summary of the method: as §1

D2 Dopamine = D2 Dopamine (Homo sapiens, UniProt P14416); assay: Selectivity: D2 Dopamine
Chain of D2 Dopamine (P14416 whole entry): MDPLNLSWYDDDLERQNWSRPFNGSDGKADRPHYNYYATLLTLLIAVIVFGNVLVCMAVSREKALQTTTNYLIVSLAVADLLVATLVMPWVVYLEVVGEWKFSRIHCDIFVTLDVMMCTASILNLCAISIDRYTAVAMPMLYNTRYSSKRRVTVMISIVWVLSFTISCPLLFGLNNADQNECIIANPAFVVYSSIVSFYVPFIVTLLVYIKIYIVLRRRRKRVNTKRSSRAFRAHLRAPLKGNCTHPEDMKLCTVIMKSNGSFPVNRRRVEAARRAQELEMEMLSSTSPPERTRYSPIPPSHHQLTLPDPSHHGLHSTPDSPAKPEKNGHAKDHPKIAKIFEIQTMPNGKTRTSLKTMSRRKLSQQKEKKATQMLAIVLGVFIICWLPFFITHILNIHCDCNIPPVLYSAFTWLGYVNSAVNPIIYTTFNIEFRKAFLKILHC

[4] = Metabolism rate, pmol/min/mg at 1 μM, rat male; type: in vitro ADME; details: 1 μM compound
5-HT7 = 5-HT7 (Homo sapiens, UniProt P34969); assay: Selectivity: 5-HT7
Chain of 5-HT7 (P34969 whole entry, species assumed): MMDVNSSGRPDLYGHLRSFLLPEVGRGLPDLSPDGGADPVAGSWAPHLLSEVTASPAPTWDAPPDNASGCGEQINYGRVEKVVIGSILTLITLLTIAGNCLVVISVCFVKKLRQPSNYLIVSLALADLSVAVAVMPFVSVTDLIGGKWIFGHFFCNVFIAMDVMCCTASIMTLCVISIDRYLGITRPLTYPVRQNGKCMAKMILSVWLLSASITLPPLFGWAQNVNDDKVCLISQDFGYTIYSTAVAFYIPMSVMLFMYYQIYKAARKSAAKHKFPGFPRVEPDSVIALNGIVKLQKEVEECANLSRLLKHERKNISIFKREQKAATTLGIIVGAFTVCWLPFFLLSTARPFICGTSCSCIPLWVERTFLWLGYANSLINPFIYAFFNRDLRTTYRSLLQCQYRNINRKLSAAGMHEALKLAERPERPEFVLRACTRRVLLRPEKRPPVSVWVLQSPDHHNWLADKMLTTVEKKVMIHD

human GnRH receptor = target: T3, human GnRH receptor (Homo sapiens, UniProt P30968); assay: Radioligand binding, 125I-GnRH-A displacement, membranes of HEK 293 cells with human GnRH receptor; details: read-out: hGnRH IC50
T3 construct: expressed in transfected cells; host or cells: HEK 293 (hGnRH-R/293, from Dr. Stuart Sealfon)
T3 sequence (P30968 1-328): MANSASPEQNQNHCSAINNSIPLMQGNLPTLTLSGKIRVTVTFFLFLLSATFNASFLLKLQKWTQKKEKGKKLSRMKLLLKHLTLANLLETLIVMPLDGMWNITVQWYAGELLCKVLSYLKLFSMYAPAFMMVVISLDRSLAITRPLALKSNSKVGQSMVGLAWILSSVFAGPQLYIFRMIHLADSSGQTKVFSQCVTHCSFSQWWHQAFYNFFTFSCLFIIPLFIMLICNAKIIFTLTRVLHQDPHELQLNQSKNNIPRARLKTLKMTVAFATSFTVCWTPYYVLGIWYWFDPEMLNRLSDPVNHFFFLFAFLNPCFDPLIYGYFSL
Summary of the method: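 After filtration and PBS washes, bound radioactivity was counted by scintillation and IC50 derived. Identical conditions applied for non-human receptors.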

[5] = Metabolism rate, pmol/min/mg at 1 μM, rat female; type: in vitro ADME; details: 1 μM compound
[6] = Metabolism rate, pmol/min/mg at 1 μM, monkey; type: in vitro ADME; details: 1 μM compound
[7] = Metabolism rate, pmol/min/mg at 1 μM, dog; type: in vitro ADME; details: 1 μM compound
rat GnRH receptor [8] = target: T1, rat GnRH receptor; assay: Microphysiometry, extracellular acidification rate, GGH3 cells; type: cell-based; details: agonist alone
Method: These cells have been extensively characterized previously (Kaiser et al., 1997). These cells were grown in low glucose Dulbecco's modified Eagle's medium (DMEM) containing: 100U/mL penicillin/streptomycin, 0.6 g/L G418 and 10% beat-inactivated fetal bovine serum
This cell line was provided by Dr. Stuart Sealfon, Mount Sinai Medical School New York, N.Y. These cells were grown in DMEM supplemented with 0.2 g/L G418 100 U/ml penicillin/streptomycin and 10% FBS. Both GGH3 and hGnRH-R/293 cells were utilized for both for both total inositol phosphate measurement and for microphysiometry assessment of compound efficacy.
The Cytosensor®Microphysiometer (Molecular Devices, Sunnyvale, Calif.) is a real-time, noninvasive, nonradioactive semiconductor-based system for monitoring the cellular responses to various stimuli. It is based on a pH-sensitive silicon sensor, the light-addressable potentiometric sensor which forms part of a microvolume flow chamber in which cultured cells are immobilized (Pitchford et al., 1995; Parce et al., 1989; Owicki, et al. 1994).
GGH3 cells were seeded in low-buffered minimal essential media (MEM, Sigma) containing 25 mM NaCl and 0.1% BSA at a density of 500,000 cells/capsule onto the polycarbonate membrane (3 μm porosity) of cell capsule cups (Molecular Devices, Sunnyvale, Calif.). Capsule cups were transferred to sensor chambers where cells were held in close apposition to a silicon sensor within a sensor chamber, which measures small changes in pH in the microvolume of the sensor chamber. Low-buffered medium was pumped continuously across the cells at a rate of approximately 100 μl/min from one of two fluid reservoirs. A selection valve determined which reservoir from which fluid was perifused onto the cells.
The Cytosensor®Microphysiometer generates a voltage signal, which is a linear function of pH, every second. In order to measure acidification rates, flow to the sensor chamber containing the cells was periodically interrupted, allowing for excreted acidic metabolites to build up in the extracellular fluid of the cells. In these experiments, cells were maintained at 37° C. on a two minute flow cycle with cells being perfused with media for 80 seconds followed by 40 seconds in which the flow of media was stopped. During this 40 second interval, acidification rates were measured for a 30 sec interval. In this fashion, a single acidification rate was calculated every two min. The Cytosensor®Microphysiometer device contains eight such sensor units, allowing for eight simultaneous experiments to be performed. Each unit was individually programmed utilizing a computer linked to the system.
GGH3 cells were initially equilibrated in the low-buffered MEM media for a period of 30-60 min in which basal acidification rates (measured as μV/sec), in the absence of any stimuli, were monitored. When the basal rate of acidification changed by less than ten percent over a period of twenty minutes, experiments were initiated. Time course experiments were performed to determine the optimal time for agonist exposure prior to acidification rate measurement and the duration of exposure needed to obtain peak acidification responses to various agonists. From these time course experiments, it was determined that cells should be exposed to GnRH peptide agonists at least one minute prior to collection of acidification rate data. Peak acidification rates usually occurred in the first two-minute exposure cycle. In order to capture the peak response to GnRH, cells were exposed to the agonist for a total of four minutes. […] All compounds were tested in a final concentration of 1% DMSO in low-buffered MEM media described above.

bovine GnRH receptor = target: T4, bovine GnRH receptor (Bos taurus, UniProt P32236); assay: Radioligand binding, 125I-GnRH-A, bovine pituitary membranes; details: means ± SE of at least three experiments performed in duplicate; read-out: Bovine IC50
T4 construct: membranes were prepared from bovine pituitary; from tissue; host or cells: bovine pituitary
T4 sequence (P32236 1-328): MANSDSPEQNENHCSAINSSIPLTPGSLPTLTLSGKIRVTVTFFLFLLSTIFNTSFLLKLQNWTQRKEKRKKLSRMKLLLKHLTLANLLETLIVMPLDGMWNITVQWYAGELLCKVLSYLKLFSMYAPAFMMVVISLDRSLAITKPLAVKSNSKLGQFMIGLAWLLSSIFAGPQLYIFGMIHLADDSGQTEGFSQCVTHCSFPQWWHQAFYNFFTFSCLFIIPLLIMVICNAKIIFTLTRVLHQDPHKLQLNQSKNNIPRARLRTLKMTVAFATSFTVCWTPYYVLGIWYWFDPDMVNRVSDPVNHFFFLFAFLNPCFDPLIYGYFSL
Summary of the method: as §1

[9] = female, 10 mg/kg, rat female, p.o. 10 mg/kg, 5 mg/ml solution in 10% DMSO 10% cremophor 80% saline
[10] = male, 20 mg/kg, rat male, p.o. 20 mg/kg, vehicle per footnote (DMSO/cremophor/saline)

Human pmol/min/mg 1 μM [1]: 497 pmol/min/mg | IC50 (rat GnRH receptor [2]): 530 nM | Cmax [3, 9]: 440 nM | Tmax [3, 9]: 1 h | half-life ([3]; female, rat female): 4.6 h | Fp.o. ([3]; rat female, 5 mg/ml solution in 10% DMSO 10% cremophor 80% saline): 59% (10 mg/kg)^10 | IC50 (mouse GnRH receptor; read-out: mGnRH IC50): 320 nM | Ki (D2 Dopamine): 2300 nM | Rat male pmol/min/mg 1 μM [4]: 2521 pmol/min/mg | Ki (5-HT7): > 4400 nM | IC50 (human GnRH receptor): 110 nM
Compound: COc1cccc(OC)c1NC(=O)c1ccc(Cc2c(C)cc(C)c(Br)c2C)o1 [Compound 140]

Human pmol/min/mg 1 μM [1]: 248 pmol/min/mg | IC50 (rat GnRH receptor [2]): 1.6 nM | half-life ([3]; male, iv, 10 mg/kg, rat male): 1.1 h | Cmax [3, 10]: 30 nM | Tmax [3, 10]: 2 h | Fp.o. ([3]; rat male, p.o. 20 mg/kg, vehicle per footnote (DMSO/cremophor/saline)): 3% (20 mg/kg)^1 | IC50 (mouse GnRH receptor; read-out: mGnRH IC50): 1.3 nM | Rat female pmol/min/mg 1 μM [5]: 133 pmol/min/mg | Monkey pmol/min/mg 1 μM [6]: 5019 pmol/min/mg | Rat male pmol/min/mg 1 μM [4]: 1414 pmol/min/mg | IC50 (human GnRH receptor): 12 nM | Dog pmol/min/mg 1 μM [7]: 1960 pmol/min/mg
Compound: Cc1cc2c(cc1Cc1ccc(C(=O)NCc3cccc(CNc4nccc(NC[C@@H]5CCCO5)n4)c3)o1)C(C)(C)CCC2(C)C [Compound 148]

IC50 (mouse GnRH receptor; Mouse IC50, means ± SE of at least three experiments performed in duplicate): 11 ± 2 nM | IC50 (bovine GnRH receptor): 13 ± 2 nM
Compound: CC(C)C[C@H](NC(=O)CNC(=O)[C@H](Cc1ccc(O)cc1)NC(=O)[C@H](CO)NC(=O)[C@H](Cc1c[nH]c2ccccc12)NC(=O)[C@H](Cc1c[nH]cn1)NC(=O)[C@@H]1CCC(=O)N1)C(=O)N[C@@H](CCCNC(=N)N)C(=O)N1CCC[C@H]1C(=O)NCC(N)=O [GnRH, reference compound]
extracellular acidification rate of GGH3 cells (rat GnRH receptor [8]): dose-dependent increase in the extracellular acidification rate
